Source: publication PMC10857906, “PROTAC-mediated NR4A1 degradation as a novel strategy for cancer immunotherapy” (The Journal of Experimental Medicine, 2024)

Columns and labels:
PK study in mice = assay type: in vivo, C57BL/6 mice; details: mouse
Description: The PK study of NR-V04 was done by Bioduro Inc. on three healthy male C57BL/6 mice weighing between 20 and 25 g in each group. Test compound (i.v.) was dissolved in 5% DMSO/3% tween 80 in PBS with 0.5 mEq 1N HCl and was administered (n = 3 per group) at a dose level of 2 mg/kg (concentration: 0.4 mg/ml). Test compounds (i.p.) were dissolved in 5% DMSO/3% tween 80 in PBS with 2 mEq 1N HCl (concentration […]) and were administrated at a dose level of 20 mg/kg. Plasma samples (i.v.) were collected from the orbital plexus at 0.083, 0.25, 0.5, 1.0, 2.0, 4.0, 8.0, and 24 h, and plasma samples (i.p.) were collected from the orbital plexus at 0.25, 0.50, 1.0, 2.0, 4.0, 8.0, and 24 h after dosing. The drug concentrations in the samples were quantified by LC/tandem MS. PK parameters were calculated from the mean plasma concentration by non-compartmental analysis.

[1] = system: immune cells in the TME, spleen and blood; test: Immune profile by flow cytometry in B16F10 tumor-bearing mice; assay type: in vivo, mouse
Description: (§1) For syngeneic tumor models, 5 × 10^5 cells MC38, Yumm1.7, and Yummer1.7, 1 × 10^5 cells of B16F10 were resuspended in PBS and implanted into 7–9-wk-old mice subcutaneously. For the tumor inhibition experiment, mice were treated with 1.8 mg/kg NR-V04 or 0.75 mg/kg celastrol by i.p. injection twice weekly. For the immune profile experiment, once tumors reached 0.5 cm in diameter, mice were treated with 1.8 mg/kg NR-V04 by i.p. injection twice weekly. For the toxicity experiment, male and female non-tumor-bearing mice were treated with 2 mg/kg NR-V04 for two doses in the first week and 5 mg/kg for another two doses in the second week. Blood samples were taken from the submandibular (facial) vein before each treatment and 42 days later for hematological analysis, and body weight was measured twice per week up to day 42. Mice were euthanized in accordance with the IACUC protocol once the largest tumors reached 2 cm in diameter, and tissues were collected for further analysis.
Mouse tumors were excised and ∼200 mg of tumor tissue was enzymatically and mechanically digested using the mouse Tumor Dissociation Kit (Miltenyi Biotec) to obtain a single-cell suspension. Human tumor samples and sections were enzymatically and mechanically digested using the human Tumor Dissociation Kit (Miltenyi Biotec) to obtain single-cell suspension. Red blood cells were lysed using ACK lysis buffer and mononuclear cells were isolated by density gradient using SepMate Tubes (StemCell Technologies) and Lymphoprep density gradient media (StemCell Technologies). Mouse cells were then washed and incubated with combinations of the following antibodies: anti-mouse CD62L-BV785 (clone MEL-14), anti-mouse MHCII I-A/I-E-BB515 (Clone 2G9, 1:400; BD Biosciences), anti-mouse CD11B-PEdazzle 594 (clone M1/70, 1:200), anti-mouse CD45-AF532 (clone 30F.11), anti-mouse CD3-APC/Cy7 (clone 17A2), anti-mouse CD8-BV510 (clone 53-6.7), anti-mouse CD4-BV605 (clone GK1.5), anti-mouse NK1.1-AF700 (clone PK136), anti-mouse/human CD45R/B220-BV 570 (clone RA3-6B2), anti-mouse CD138-BV711 (clone 281-2), […], anti-mouse IgD-PE-Cy7 (clone 11-26c.2a), anti-mouse Ly6G-FITC (clone IA8), anti-mouse Ly6C-BV711 (clone HK1.4), anti-mouse CD38-PerCP/Cy 5.5 (clone 90) anti-mouse IgM-AF488 (clone RMM-1), anti-mouse CD25-PE-Cy5 (clone PC61) plus zombie red (cell viability; Thermo Fisher Scientific), and mouse FcR blocker (anti-mouse CD16/CD32, clone 2.4G2; BD Biosciences). After surface staining, cells were fixed and permeabilized using the FOXP3/Transcription Factor Staining Buffer Set (eBioscience). Cells were stained with a combination of the following antibodies: anti-mouse FOXP3-efluor 450 (clone FJK-16S, 1:50; eBioscience), anti-mouse Granzyme B-BV421 (clone GB11), and anti-mouse NR4A1-PE (clone 12.14; eBioscience). Human cells were stained with a combination of the following antibodies: anti-human CD45-BV510 (clone H130), anti-human CD3-AF700 (clone HIT5a), anti-human CD4-BV421 (clone OKT4), anti-human CD8-BV711 (clone RPA-T8), anti-human CD127-BV605 (clone A019DS), anti-human CD25-PE-Cy7 (clone MA251) plus FVD-eFluor-780 (eBioscience), and human FcR blocking reagent (StemCell Technologies). Cells were washed then fixed and permeabilized using the eBioscience FOXP3/Transcription Factor Staining Buffer Set. […] Flow cytometry was performed on a three laser Cytek Aurora Cytometer (Cytek Biosciences) and analyzed using FlowJo software (BD Biosciences). […]

B16F10 melanoma = B16F10 melanoma syngeneic tumor model; assay type: in vivo, mouse
Text: 7–9-wk-old C57BL/6J, B6.129S2-Ighm^tm1Cgn/J (002288), B6.129S2-Nr4a1^tm1Jmi/J (NR4A1^−/−, 006187), and NOD-SCID interleukin-2 receptor gamma null (NSG) mice were purchased from Jackson Laboratories. For all studies involving NR-V04 and celastrol, the compounds were formulated in 50% phosal PG, 45% miglyol 810N, and 5% polysorbate 80 and administered via i.p. injection.
as §1

CC1=C(O)C(=O)C=C2C1=CC=C1[C@@]2(C)CC[C@@]2(C)[C@@H]3C[C@](C)(C(=O)NCCOCCOCCOCCOCC(=O)N[C@H](C(=O)N4C[C@H](O)C[C@H]4C(=O)N[C@@H](C)c4ccc(-c5scnc5C)cc4)C(C)(C)C)CC[C@]3(C)CC[C@]12C [NR-V04]
clearance (PK study in mice; male, C57BL/6, plasma, IV 2 mg/kg): 0.162 mL/min/kg | clearance rate (in words) (PK study in mice): low clearance rate | B cells in the spleen and blood ([1]; B16F10 model, 2 doses of 1.8 mg/kg i.p.): no significant change | CD8^+ Texh cells in vivo ([1]; B16F10 tumors): did not observe a significant decrease in CD8^+ Texh cells | TI-B cells (B220^+ cells) ([1]; B16F10 tumors, 2 doses of 1.8 mg/kg i.p. on day 1 and day 4, collected day 7, vehicle 14.7%): 30.1% | effector memory CD8 T cells (CD44^+CD62L^− Tem) ([1]; spleen and tumors, B16F10 model, 2 doses of 1.8 mg/kg i.p.): increase in effector memory CD8 T cells | monocytic myeloid-derived suppressor cells (m-MDSC, CD11B^+Ly6C^+) ([1]; tumors and blood, B16F10 model, 2 doses of 1.8 mg/kg i.p.): decrease in monocytic myeloid-derived suppressor cells | tumor growth (B16F10 melanoma; B16F10 in B6.129S2-Ighm^tm1Cgn/J mice that lack mature B cells): unable to inhibit tumor growth | tumor growth (B16F10 melanoma; B16F10 in NR4A1^−/− mice, 1.8 mg/kg i.p.): failed to inhibit B16F10 | tumor growth (B16F10 melanoma; B16F10 in NSG mice, 1.8 mg/kg i.p.): failed to inhibit tumor growth | tumor growth (B16F10 melanoma; B16F10 in WT mice, 1.8 mg/kg NR-V04 or 0.75 mg/kg celastrol i.p. twice a week from day 7): effectively inhibited tumor growth
